Data from patent US4243681A, “Alkylthiophenoxypropanolamines and pharmaceutical compositions and uses thereof” (priority 1979, dated 1981).

Tests used:
perfused dog hind limb = assay: Peripheral vasodilator activity, perfused dog hind limb (anesthetized dog); type: in vivo
Method: Test Method. Mongrol dogs of either sex weighing between 11 and 16 kg., each, were anesthetized with pentobarbital (30 mg./kg.) administered intravenously. The left brachial vein was cannulated and pentobarbital infused continuously throughout the experiment at a rate of 5 mg./kg./hr. A tracheotomy was performed and dogs ventilated mechanically with room air at a rate of 18 strokes/min. and a volume equivalent to 20 ml./kg. The vagi were sectioned bilaterally in the mid-cervical region of the neck. The right brachial vein and artery were cannulated to inject drugs and to monitor blood pressure via a Statham pressure transducer, respectively. All measurements were recorded on a Beckman-Offner dynograph. The abdominal aorta was exposed through midline incision and a loose ligature placed around the aorta distal to the left renal artery. The right (donor) and left (recipient) femoral arteries were exposed for cannulation and subsequent hind-limb perfursion. Following intravenous administration of heparin (5 mg/kg.) and gallamine triethiodide (2 mg./kg.), the right femoral artery was cannulated and the tip of the catheter advanced into the abdominal aorta to the level of the renal arteries. The left femoral artery was cannulated and the hind-limb perfused using a Harvard Perfusion pump. The ligature previously placed around the aorta was subsequently tied to minimize collateral circulation. […] Perfusion pressure, measured at a point distal to the perfusion pump was set equal to 150 mm Hg. by adjusting pump speed. Blood flow to the limb was determined volumetrically at the conclusion of the experiment. The test agent was administered by infusion at a rate of from 0.1-1.0 mg./min. for a six-minute period and maximum reduction in pressure determined. One to three animals were employed per test agent. […] This protocol precludes effects resulting from animal variation thus permitting a direct side-by-side comparison of vasodilating activity.

[1] = system: human platelet-rich plasma; assay: Inhibition of platelet aggregation in vitro (ADP or collagen induced; antithrombogenic activity); type: cell-based
Method: Test Method. A method similar to that described in Born, Nature 194, 927 (1962) and O'Brien, J. Clinical Pathology 15, 446 (1962). This test comprises a nephelometric method in which the change in turbidity of a specimen of human platelet-rich plasma is measured on causation of platelet aggregation by addition of adenosine diphosphate (ADP) or collagen as the thrombogenic inducing agent. An increase in transmittance light occurs when the thrombogenic agent is added to the specimen of platelet-rich plasm due to clumping of platelets. Efficacy of the test compound is determined by ability to prevent the clumping and concommitant increase in transmittance. Various concentrations of the test agent are tested and that concentration causing a 50% reduction in the thrombogenic response is determined from a concentration-response curve.

adrenergic beta-receptor = biological target: T1, adrenergic beta-receptor (Cavia porcellus, UniProt Q8K4Z4); assay: Beta-adrenergic blocking activity in the isolated guinea pig trachea (isoproterenol); type: cell-based; conditions: potency relative to propanol (equals one); isoproterenol 0.1 mcg./ml.
T1 construct: Tracheas excised from adult guinea pigs; from tissue; host or cells: guinea pig trachea (spirally cut segments)
T1 sequence (Q8K4Z4 whole entry): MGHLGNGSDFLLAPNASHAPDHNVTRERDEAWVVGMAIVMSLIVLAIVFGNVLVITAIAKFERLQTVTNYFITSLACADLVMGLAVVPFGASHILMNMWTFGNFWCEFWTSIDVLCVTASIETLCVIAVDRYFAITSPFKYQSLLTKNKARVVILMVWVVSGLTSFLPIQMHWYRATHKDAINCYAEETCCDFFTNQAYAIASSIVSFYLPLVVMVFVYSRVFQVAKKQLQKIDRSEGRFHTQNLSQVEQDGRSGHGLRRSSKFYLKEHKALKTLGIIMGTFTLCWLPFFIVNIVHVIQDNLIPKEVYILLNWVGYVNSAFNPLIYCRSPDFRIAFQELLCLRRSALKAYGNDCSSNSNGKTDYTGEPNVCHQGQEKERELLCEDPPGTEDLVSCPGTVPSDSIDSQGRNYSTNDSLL
Method: Test Method. […] The lower end of a tracheal segment is fixed to a stationary glass rod and the upper end is threaded to an isometric tension transducer. Changes in the spontaneous tonus of the tracheal smooth muscle are monitored via the transducer and recorded continuously on an electronic recorder. Adrenergic beta-receptor blocking activity is determined by the ability of a test agent to inhibit the response of the isolated tissue to the adrenergic beta-stimulant "isoproterenol" at a concentration of 0.1 mcg./ml. bath fluid. The tissues are exposed to the test agent solution for a 15-min. interval prior to the addition of isoproterenol to the bath fluid. Beta-receptor blocking potency of a test drug is ascertained from concentration-response relationships wherein the response is expressed as a percent inhibition of isoproterenol-induced tissue response. […] Each drug solution is added to the tissue bathing medium at a constant volume of 0.2 ml./ml. of bath fluid and only one test drug concentration is employed for an individual tissue segment. Potency of the test agent relative to that of the beta-adrenergic blocking agent "propanolol" as a reference standard is assessed by comparing the IC50 values.

rabbit thoracic aorta = assay: Isolated rabbit thoracic aorta, antispasmodic activity vs. potassium chloride; type: cell-based, rabbit (New Zealand White); conditions: potency relative to papaverine (equals one), from pA2 vs. potassium chloride
Method: Test Method. Antispasmodic activity was assessed in vitro by determining the effect of the test substance on induced contraction of arterial smooth muscle as follows. Adult, male, New Zealand White rabbits (body weight 2.5-4 kg.) were used. Each rabbit was killed by i.v. air injection. The thorax was opened and the descending thoracic aorta removed and placed in Kreb's-bicarbonate solution. Extraneous tissue was removed and the aorta was cut spirally along its entire length. Four spiral segments, each approximately 2 cm. in length (unstretched), were obtained from each thoracic aorta. […] The bath medium surrounding the aortic spiral (Kreb's-bicarbonate solution) was maintained at 37.5°C. and constantly aerated with 95% O2 :5% CO2. Activity of the aortic smooth muscle was recorded on an electronic polygraph via its connection to the tension transducer. After an equilibration period of 60 min., a cumulative dose-response curve was obtained to an agonist (e.g. potassium chloride or norepinephrine) and the tissue then washed. Seventy-five min. later, a second cumulative dose-response curve to the agonist was obtained and the tissue washed again. Sixty min. later, a test drug solution was added to the tissue bath fluid and, after 15 min., drug exposure and, without washing, a third and final agonist-response curve was obtained. All additions to the bath fluid were 0.1 ml. volumes of aqueous solutions.

platelet survival = assay: Platelet survival time in rats with intra-arterial catheters; type: in vivo, rat
From the text: (a) Rats with intra-arterial catheters have periods of shortened platelet survival time. This shortened survival time is normalized with the compound of Example 2.

mesenteric arteries [2] = assay: Basal tone of mesenteric arteries of dogs; design: species or system dog
From the text: (§1) (b) The compound of Example 2 elevated basal tone of mesenteric arteries of dogs and rabbits. This effect is considered valuable in the treatment of peripheral and cerebral vascular diseases.

mesenteric arteries [3] = assay: Basal tone of mesenteric arteries of rabbits; design: species or system rabbit
From the text: as §1

red blood cell = assay: Red blood cell rigidity via chromium^51 labeling technique; type: cell-based
rabbit eye = assay: Local anesthetic activity, topical application to the rabbit eye; type: in vivo
guinea pig skin = assay: Local anesthetic activity, intradermal infiltration of guinea pig skin; type: in vivo
[4] = 0.3 mg./min., side-by-side comparison

Structure (SMILES): CCCCCCCCNCC(O)COc1ccc(SC(C)C)cc1.Cl (stereo not drawn) [Example 2, 1-[4-[(1-Methylethyl)thio]phenoxy]-3-(octylamino)-2-propanol Hydrochloride]
- vasodilator effect relative to test agent A (perfused dog hind limb; [4]): approximately 3.2 times
- vasodilator effect relative to test agent B (perfused dog hind limb; [4]): ~21 times
- Pressure Decrease (perfused dog hind limb; infusion rate 0.3 mg./min.): -44 Millimeters of mercury
- Pressure Decrease (perfused dog hind limb; infusion rate 0.3 mg./min., side-by-side comparison in same animals): -63 Millimeters of mercury
- Pressure Decrease (perfused dog hind limb; infusion rate 1.0 mg./min.): -99 Millimeters of mercury
- ED50 ADP (inhibition of platelet aggregation) ([1]; aggregation induced by 1 mcg. ADP): 56 Microgram/0.5 ml. plateletrich human plasma
- ED50 Coll (inhibition of platelet aggregation) ([1]; minimal amount of collagen producing maximal aggregation): 31 Microgram/0.5 ml. plateletrich human plasma
- Beta-Adrenergic Blocking Potency (adrenergic beta-receptor): < 0.001
- Antispasmodic Potency (rabbit thoracic aorta): 0.6
- shortened platelet survival time (platelet survival): normalized
- basal tone of mesenteric arteries (mesenteric arteries [2]): elevated
- basal tone of mesenteric arteries (mesenteric arteries [3]): elevated
- red blood cell rigidity (red blood cell): decreased
- local anesthetic activity vs. lidocaine (rabbit eye): greater than
- local anesthetic activity vs. lidocaine (guinea pig skin): as great as
